Measurements from paper PMC8983325 (Protein & Cell, 2022).
“And” between values parts separate entries of the source, which are not always exact repeats. Equal values may be shown once. Read-outs that look alike come from different tables or passages of the source.

How the values were obtained:
[1] = test system: cellular proteases (serine, cysteine and acid proteases); format: biochemical
[2] = test system: Huh-7, VeroE6/TMPRSS2, Calu-3, Caco-2, BSC-1 cells and human embryonic lung fibroblasts (HELF)
[3] = test system: ISG15 and PKR expression; format: cell-based
[4] = target: T1, SARS2-PLpro (Severe acute respiratory syndrome coronavirus 2, UniProt P0DTD1); format: biochemical; settings: read-out: IC50 against SARS2-PLpro
[5] = target: T1, SARS2-PLpro; format: binding, SARS-CoV-2
[6] = target: MERS-PLpro_WT (Middle East respiratory syndrome-related coronavirus, UniProt K9N7C7); format: binding
MERS-PLpro_WT, sequence (K9N7C7 1552-1823 limits assumed): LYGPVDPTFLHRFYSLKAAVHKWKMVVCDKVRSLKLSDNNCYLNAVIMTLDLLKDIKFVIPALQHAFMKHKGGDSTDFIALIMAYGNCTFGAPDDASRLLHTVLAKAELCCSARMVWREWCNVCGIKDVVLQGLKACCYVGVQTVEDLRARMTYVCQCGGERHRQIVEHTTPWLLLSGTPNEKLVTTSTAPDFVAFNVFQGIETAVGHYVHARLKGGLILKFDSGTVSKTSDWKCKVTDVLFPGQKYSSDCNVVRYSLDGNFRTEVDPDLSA

[7] = target: T1, SARS2-PLpro; format: biochemical
[8] = test system: MERS-CoV; experiment: microbe, parasite or virus in culture; format: cell-based
[9] = test system: SARS-CoV-2; design: species or system golden Syrian hamster; settings: hamster, in vivo
[10] = test system: SARS-CoV-2; format: cell-based
[11] = test system: hCoV-229E; format: cell-based
[12] = test system: SARS-CoV-2; format: cell-based; remark: listed apart in the source
[13] = test system: PLpro-mediated IFN suppression (SARS2-PLpro, MERS-PLpro); format: cell-based
[14] = test system: ISG15 and PKR expression
[15] = test system: human DUBs; format: biochemical
[16] = test system: MERS-CoV; format: cell-based
[17] = test system: hCoV-OC43; format: cell-based
[18] = test system: SARS-CoV-2; experiment: microbe, parasite or virus in culture; format: cell-based
[19] = test system: MERS-CoV; format: cell-based; remark: listed apart in the source
[20] = target: MERS-PLpro (Middle East respiratory syndrome-related coronavirus, UniProt K9N7C7); format: biochemical
MERS-PLpro, sequence (K9N7C7 1552-1823 limits assumed): as above

[21] = Severe acute respiratory syndrome coronavirus 2, read-out: EC50 anti-SARS-CoV-2

In the case of `O=C(Nc1ccccc1Cl)c1sc(=S)n2c1[nH]c(=O)c1ccccc12` [F0213], the cellular protease activity [1] is reported as “not affected”, the “cytotoxicity in the matching cell lines” value [2] is reported as “negligible cytotoxicity” and the “transcription levels of ISG15 and PKR, MERS-CoV-infected Huh-7 cells” value [3] is reported as “reduced”. The IC50 [4] was 7.4 µM, the “KD of F0213 to SARS2-PLpro pre-incubated with GRL0617” value [5] was “undetectable” and the “binding affinity to SARS2-PLpro relative to GRL0617 (fold less)” value [5] was “around 5 fold”. The Kd ([5]; read-out: Kd, SARS2-PLpro) was 40.5 µM, the Kd ([6]; read-out: KD, MERS-PLpro WT) was 0.95 µM and the “modification of PLpro by HA-Ub-VS” value [7] was “almost completely eliminated”. For the same molecule, the EC50 ([8]; Middle East respiratory syndrome-related coronavirus, read-out: antiviral EC50 against MERS-CoV) was 1.54 µM, the “decrease of infectious viral PFU in lung tissues” value [9] was 1–2 log10 and the lung histology scores [9] was “significantly reduced”. The “suppression of SARS-CoV-2 genome copies (normalized by β-actin) in the lungs” value [9] was “comparable degree of suppression”, the “NP antigen immunofluorescence, SARS-CoV-2-infected Vero cells” value [10] was “significant inhibition of virus replication” and the “decrease of viral yields, hCoV-229E” value [11] was “about 2 log10”. The “reduction of SARS-CoV-2 viral yields” value [12] was “more than 1 log10”, the “IFN-β, IRF3 and NF-κB reporter gene expression under PLpro suppression” value [13] was “rescued the genes expression in a dose-dependent manner” and the “expression of ISG15 and PKR, SARS-CoV-2-infected Caco-2 cells” value [14] was “significantly enhanced”. The “modification of cellular DUBs by HA-Ub-VS” value [15] was “no change”, the “decrease of viral yields, MERS-CoV” value [16] was “about 3 log10” and the “decrease of viral yields, hCoV-OC43” value [17] was “around 1.5 log10”. For the same molecule, the EC50 [18, 21] was 4.55 µM, the EC50 ([18]; read-out: EC50 anti-SARS-CoV-2) was 4.55 µM and 4.5 µM and the “NP antigen immunofluorescence, MERS-CoV-infected Vero cells” value [19] was “significant inhibition of virus replication”.
In the case of `Cc1cccc(NC(=O)c2sc(=S)n3c2[nH]c(=O)c2cc4c(cc23)OCO4)c1` [F0393], the IC50 [4] is reported as 15.8 µM and the EC50 [18, 21] is reported as 15.6 µM.
With `N#C[C@@]1(c2ccc3c(N)ncnn23)O[C@H](CO)[C@@H](O)[C@H]1O` [GS-441524, reference compound] the “decrease of infectious viral PFU in lung tissues” value [9] was “comparable”, the lung histology scores [9] was “significantly reduced” and the “suppression of SARS-CoV-2 genome copies (normalized by β-actin) in the lungs” value [9] was “comparable degree of suppression”.
For `CCC(CC)COC(=O)[C@H](C)N[P@](=O)(OC[C@H]1O[C@@](C#N)(c2ccc3c(N)ncnn23)[C@H](O)[C@@H]1O)Oc1ccccc1` [remdesivir], the “NP antigen immunofluorescence, SARS-CoV-2-infected Vero cells” value [10] was “significant inhibition of virus replication” and the “NP antigen immunofluorescence, MERS-CoV-infected Vero cells” value [19] was “significant inhibition of virus replication”.
With GRL0617 [reference compound] the “KD, MERS-PLpro WT” value [6] was “no binding affinity”, the “inhibition against MERS-CoV” value [8] was “no inhibition” and the “NP antigen immunofluorescence, SARS-CoV-2-infected Vero cells” value [10] was “marginal virus suppression”. The “effect on MERS-PLpro activity” value [20] was “ineffective” and the “NP antigen immunofluorescence, MERS-CoV-infected Vero cells” value [19] was “marginal virus suppression”.
